Experimental data as given in patent publication US20190092802A1, “ANTAGONISTS OF NK1 RECEPTORS DERIVED FROM CARBOHYDRATES, PRODUCTION METHOD AND MEDICAL USE” (CONSEJO SUPERIOR DE INVESTIGACIONES CIENTIFICAS (CSIC), priority 2015, published 2019).
“Also recorded” adds a separate entry of the source.

Experiments:
[1] = tested on: A549 human cells from lung adenocarcinoma; test: MTT cell viability assay, A549; format: cell-based; conditions: for IC50: A549, 48 hours exposure, MTT; for anticancer activity against the cancer line (in words): A549 lung cancer cells
[2] = tested on: MRC5 non-malignant human lung cells; test: MTT cell viability assay, MRC-5; format: cell-based
[3] = target: T1, NK1 receptor (Homo sapiens, UniProt P25103); test: IP-One assay (SP-induced IP1 accumulation in CHO cells transfected with NK1); format: cell-based; set-up: expressed in transfected cells; host or cells: CHO cells, transient electroporation
Description: Non-essential amino acids were also added to the medium (Invitrogen).
Transient transfection of the cell lines was carried out by electroporation in a volume of 300 μL with a total of 10 μg DNA (pRK5 Neo-NK1 wild type) plasmid (using up to 500 ng of pRK5como carrier DNA to achieve 10 μg) and with 10^7 cells in the electroporation buffer (50 mM K2HPO4, 20 mM CH3COOK, 20 mM KOH and 26 mM MgSO4, pH 7.4). After electroporation (280 V, 1 mF, GeneZapper 450/2500; IBI, New Haven, Conn., USA), the cells were suspended in a complete medium and seeded on well culture plates with a density of 10^5 per well. The 96-well culture plates were first covered with polyornithine diluted in PBS, then incubated at 37° C. for 30 minutes and they were then washed with PBS before being seeded.
The activation and inhibition of the route of the IP by the NK1 receptor agonists and antagonists, respectively, was determined using the dynamic IP-One kit (Cisbio Bioassays, Bagnols-sur-Cèze, France). After transfection, 10^5 cells were distributed in 100 pll of a complete medium into a 96-well assay plate (Greiner Bio-One, Courtaboeuf, France). After 24 hours, the medium was eliminated and replaced by 40 μl of an incubation medium that contained the agonist and/or antagonist in an appropriate concentration.
Target sequence in this assay (P25103 whole entry, species assumed): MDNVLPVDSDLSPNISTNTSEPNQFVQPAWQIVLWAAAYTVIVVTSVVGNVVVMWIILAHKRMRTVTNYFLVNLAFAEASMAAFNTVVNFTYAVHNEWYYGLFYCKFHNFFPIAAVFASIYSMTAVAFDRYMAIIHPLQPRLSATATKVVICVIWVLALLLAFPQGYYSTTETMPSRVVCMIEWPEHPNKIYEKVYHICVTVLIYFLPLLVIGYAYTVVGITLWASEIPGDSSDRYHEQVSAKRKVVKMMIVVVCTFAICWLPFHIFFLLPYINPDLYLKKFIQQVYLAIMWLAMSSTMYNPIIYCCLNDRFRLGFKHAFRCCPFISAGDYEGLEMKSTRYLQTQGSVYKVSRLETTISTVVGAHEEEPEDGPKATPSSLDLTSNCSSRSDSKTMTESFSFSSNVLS

[4] = target: T1, NK1 receptor; test: Displacement of marked SP ([125I]BH-SP); format: binding; conditions: Concentration 6.0E−05 M; marked SP 0.15 nM, 60 minutes at room temperature
Target sequence in this assay (P25103 whole entry): as the sequence (P25103 whole entry, species assumed) above

[5] = Homo sapiens, MRC5, MRC-5, 48 hours exposure

Compound	anticancer activity against the cancer line (in words) [1]	IC50 ([1]; Homo sapiens)	IC50 [2, 5]	% Inhibition of the control specific affinity [4]	other results
(R)-{1-[3,5-bis-(trifluoromethyl)phenyl]ethyl} 2-O-p-fluorobenzyl-(R)-[4,5-O-benzylidene]-β-D-D-galactopyranoside [Compound 1]	most active	–	–	–	IC50 [1]: 28 ± 6.85 µM; IC50 ([2]; MRC-5, 48 hours exposure): 141 ± 1.82 µM
CC(=O)N[C@@H](Cc1c[nH]c2ccccc12)C(=O)OCc1cc(C(F)(F)F)cc(C(F)(F)F)c1 [L-732,138, reference compound]	–	–	–	–	Kinact ([3]; inhibition of substance P (SP), dose-response curves, IP-One assay): 8.37E−08±2.63 M; SP inhibition ([3]; ligand concentration of 10^−6M): 69%
C[C@@H](O[C@H]1OCCN(Cc2n[nH]c(=O)[nH]2)[C@H]1c1ccc(F)cc1)c1cc(C(F)(F)F)cc(C(F)(F)F)c1 [Aprepitant, reference compound]	–	15.7 ± 3.46 µM	22.1 ± 6.92 µM	–	–
COc1ccccc1CN[C@H]1C2CCN(CC2)[C@H]1C(c1ccccc1)c1ccccc1 [CP-96345, reference compound]	–	46.8 ± 8.89 µM	57.9 ± 8.07 µM	–	–
C[C@@H](O[C@H]1OC[C@@H]2OC(C)(C)O[C@@H]2[C@H]1OCc1ccc(F)cc1)c1cc(C(F)(F)F)cc(C(F)(F)F)c1 [Compound 8]	–	–	–	≥100%	–
C[C@@H](O[C@H]1O[C@@H]2CO[C@@H](c3ccccc3)O[C@@H]2[C@H](O)[C@H]1OCc1ccc(F)cc1)c1cc(C(F)(F)F)cc(C(F)(F)F)c1 [Compound 2, (R)-{1-[3,5-bis-(trifluoromethyl)phenyl]ethyl} 2-O-p-fluorobenzyl-(R)-[4,5-O-benzylidene]-α-D-galactopyranoside]	most active; also recorded: matches those of cisplatin	19.3 ± 7.93 µM	120 ± 3.45 µM	≥100%	NK1 receptor antagonist activity (in words) ([3]; IP-One assay, inhibition of SP activity): excellent inhibitors of SP activity; also recorded: greatest antagonist activity
